Measured values from US20240327361A1, “RADIOLABELED COMPOSITIONS AND METHODS OF USE THEREOF” (The Research Foundation for the State University of New York, priority 2021, published 2024).

Legend:
[1] = system: Class-lla HDAC; assay: Cell-based deacetylase assay in HT-29 cells, class-IIa selective substrate Boc-Lys-TFA; details: whole-cell assay, 100 μM Boc-Lys-TFA (class-IIa selective substrate), 3 h at 37° C.
Experimental: Cell-based deacetylase assay. […] HT-29 cells (obtained from ATCC) with the addition of either 100 μM Boc-Lys-TFA (class-IIa selective substrate) or 200 μM Boc-Lys-Ac (class-I/IIb selective substrate) were plated into 96 well plates at 200,000 cells/well in 45 uL cellular assay buffer (RPMI without phenol red, 0.1% Fetal Bovine Serum) and were incubated for 3 h at 37° C. The deacetylation achieved by the addition of 50 uL HDAC developer solution (2.5 mg/ml trypsin in DMEM without Fetal Bovine Serum and 10% tween 80) for a further 1 h to sensitize the substrate and to lyse the cells. Fluorescent counts were read with microplate reader at an excitation wavelength of 360 nm and detection of emitted light of 460 nm.

[2] = system: Class-I HDAC; assay: Cell-based deacetylase assay in HT-29 cells, class-I/IIb selective substrate Boc-Lys-Ac; details: whole-cell assay, 200 μM Boc-Lys-Ac (class-I/IIb selective substrate), 3 h at 37° C.
Experimental: Cell-based deacetylase assay. The cell-based assay was conducted similar to the previous work (Lobera M 2013; Luckhurst C A 2019) Briefly, compounds were diluted in 5 uL DMSO (11-point concentration curve, 5% final DMSO) and were added to 96 wells with positive (5 μM Trichostatin A (TSA)) and negative control (5 uL DMSO) wells. HT-29 cells (obtained from ATCC) with the addition of either 100 μM Boc-Lys-TFA (class-IIa selective substrate) or 200 μM Boc-Lys-Ac (class-I/IIb selective substrate) were plated into 96 well plates at 200,000 cells/well in 45 uL cellular assay buffer (RPMI without phenol red, 0.1% Fetal Bovine Serum) and were incubated for 3 h at 37° C. The deacetylation achieved by the addition of 50 uL HDAC developer solution (2.5 mg/ml trypsin in DMEM without Fetal Bovine Serum and 10% tween 80) for a further 1 h to sensitize the substrate and to lyse the cells. Fluorescent counts were read with microplate reader at an excitation wavelength of 360 nm and detection of emitted light of 460 nm.

[3] = Partition coefficient, octanol/PBS shake flask method; assay type: physicochemical; details: phosphate buffer pH 7.4
Experimental: The log P was determined by partitioning the tracer between octanol and phosphate buffer at pH 7.4 and measuring the concentration of the tracer in each layer. The radioactivity of each layer is counted using gamma-counter. The partition coefficient (P) is calculated as [radioactivity (cpm/ml) in 1-octanol)]/[(radioactivity (cpm/ml) in phosphate buffer pH 7.4].

[4] = system: class-lla HDACs; assay: In vivo microPET imaging of healthy rats (biodistribution, self-blocking with cold TMP195); parameters: species or system Sprague Dawley rats
Experimental: Sprague Dawley rats (200-250 g, N=3,) were anesthetized with 3% isoflurane in oxygen and maintained at 2% isoflurane in oxygen throughout the imaging studies. Anesthetized rat was placed in the uPET (Siemens, Knoxville, TN) with the skull positioned in the center of the field of view. The tracer (500-700 μCi/animal) was administered intravenously into each Rat (n=3 per group) in a total volume 0.5-1.0 ml solution. Dynamic PET images were obtained over 60 minutes. Images were reconstructed with attenuation correction using an ordered subset expectation maximization (OSEM2D) algorithm with 16 subsets and 4 iterations.
Dynamic PET images were analyzed with Inveon Research Workplace 4.0 (Siemens, Knoxville, TN) and AMIDE software using manual segmentation of regions of interest (ROI), were drawn over ROI on the decay-corrected coronal images. The radioactivity accumulation (tracer uptake) within the ROI were obtained as percentage of the injected dose (ID) per gram of tissue (% ID/g). The time-activity curve (TAC) was generated from the region of interest (ROI) by plotting the radioactivity/cc vs time.
Anesthetized Sprague Dawley rats (200-250 g, N=6) were placed in the Inveon uPET (Siemens, Knoxville, TN) in the supine position with the skull positioned in the center of the field of view. [^18F]-NT160 was formulated in ethanol:polysorbate 80:saline (10:10:80%) and it was stable in this formulation at 37° C. at least for 4 hours. [^18F]-NT160 (18.5-25.9 MBq/animal) was administered via the tail-vein injection in a total volume 0.5-1.0 ml. Dynamic PET images were obtained over 60 minutes followed by CT imaging (15 min scan). Images were reconstructed with attenuation correction using an ordered subset expectation maximization (OSEM2D) algorithm with 16 subsets and 4 iterations. PET image analysis was performed using the AMIDE software by using manual segmentation of regions of interest (ROI), including: whole brain, cortex, hippocampus, thalamus, cerebellum, and brain stem. Rat Brain Atlas was used for alignment and identification of specific anatomical markers of the brain. The time-activity curve (TAC) was generated from the region of interest (ROI) by plotting the radioactivity/cc vs time. Levels of accumulation of the radiotracer in tissues were expressed as standard uptake values (SUV) that were calculated for the regions of interest (ROI) using the AMIDE software. The SUV is defined as the ratio of the tissue radioactivity concentration C (e.g. expressed as Bq/g tissue) at given time point post injection T, and the injected dose (e.g. in Bq, decay-corrected to the same time T), and normalized by the body weight in grams. GraphPad Prism (Graph Pad Software La Jolla, CA) was used for image data analysis. [^18F]-NT2-160 was also prepared by the same or similar procedure.

[5] = rat, co-administered TMP195 2 mg/kg

Compound | IC50 [1] | IC50 [2] | other results
O=C(NC1CCN(c2ccccc2)C1)c1ccc(-c2noc(C(F)(F)F)n2)cc1 (centres unmarked) [NT2-174] | > 20000 nM | > 50000 nM | 
O=C(NC1CCN(Cc2ccccc2)C1)c1ccc(-c2noc(C(F)(F)F)n2)cc1F (centres unmarked) [NT3-77] | 152 nM | > 10000 nM | 
O=C(NC1CCN(Cc2ccccc2F)C1)c1ccc(-c2noc(C(F)(F)F)n2)cc1 (centres unmarked) [NT3-132B] | 300 nM | > 50000 nM | 
C[C@@H](CN1CC[C@H](c2ccccc2)C1)NC(=O)c1ccc(-c2noc(C(F)(F)F)n2)cc1 [NT3-16D] | 5 nM | > 25000 nM | 
COC[C@@H](NC(=O)c1ccc(-c2noc(C(F)(F)F)n2)nc1)C(=O)NCc1ccccc1 [NT-192] | 1710 ± 330 nM | > 15000 nM | 
O=C(NC1CCN(CCc2ccccc2F)C1)c1ccc(-c2noc(C(F)(F)F)n2)cc1 (centres unmarked) [NT3-102C] | > 10000 nM | > 50000 nM | 
COC[C@@H](NC(=O)c1ccc(-c2noc(C(F)(F)F)n2)cc1)C(=O)NCc1ccc(F)cc1 [NT2-156] | 233 ± 110 nM | > 15000 nM | 
O=C(NC1CCN(CCF)C1)c1ccc(-c2noc(C(F)(F)F)n2)cc1 (centres unmarked) [NT3-123] | > 10000 nM | > 50000 nM | 
C[C@H](CN(C)Cc1ccc(F)cc1)NC(=O)c1ccc(-c2noc(C(F)(F)F)n2)cc1 [NT3-11D] | 59 ± 16 nM | > 15000 nM | 
CN(Cc1ccccc1)C(=O)CCNC(=O)c1ccc(-c2noc(C(F)(F)F)n2)cc1 [NT-174] | 905 ± 220 nM | > 15000 nM | 
O=C(NC1CCN(CCc2ccccc2)C1)c1ccc(-c2noc(C(F)(F)F)n2)cc1 (centres unmarked) [NT3-106C] | > 10000 nM | > 50000 nM | 
CN(Cc1ccccc1)C(=O)C(C)(C)CNC(=O)c1cccc(-c2noc(C(F)(F)F)n2)c1 [NT3-118] | > 50000 nM | > 50000 nM | 
O=C(NC1CCN(Cc2ccc(F)cc2)C1)c1ccc(-c2noc(C(F)(F)F)n2)cc1 (centres unmarked) [NT3-40] | 142 nM | > 20000 nM | 
CC(C)(CNC(=O)c1cccc(-c2noc(C(F)(F)[18F])n2)c1)c1coc(-c2ccccc2)n1 [^18F-NT57] |  |  | logD [3]: > 6; tracer uptake in the harderian gland ([4]; rat): neither specific nor unique; biodistribution / uptake in brain regions ([4]; rat brain PET): heterogeneous; uptake in the wrist ([4]; rat, baseline and blocking with TMP195): intense and blockable; uptake in the brown fat adipose tissues (BATs) ([4]; rat, cervical and interscapular BAT, 60 min): intense and increased uptake; brain uptake with cold dose of TMP195 vs baseline (self-blocking) [4, 5]: reduced; tracer uptake in BATs with cold dose of TMP195 (blocking) [4, 5]: reduced; accumulation in the liver ([4]; rat, dynamic PET over 60 min): accumulated heavily; clearance from most normal tissues (heart, brain, muscle) ([4]; rat, dynamic PET over 60 min): rapid clearance; peak uptake in the brain ([4]; rat, intravenous tracer, dynamic PET over 60 min): ~1 % ID/g; tracer uptake in the muscle ([4]; rat, not affected by blocking): low and nonspecific
CC(C)(NCc1ccccc1)C(=O)CNC(=O)c1ccc(-c2noc(C(F)(F)F)n2)cc1 [NT2-44] | 768 ± 190 nM | > 15000 nM | 
CN(Cc1ccccc1)C(=O)C(C)(C)CNC(=O)c1ccc(-c2noc(C(F)(F)F)n2)cc1 [NT3-119] | 933 ± 260 nM | > 15000 nM | 
O=C(NC1CCN(Cc2cccc(F)c2)C1)c1ccc(-c2noc(C(F)(F)F)n2)cc1F (centres unmarked) [NT3-77B] | 195 nM | > 10000 nM | 
CCN1CCC(NC(=O)c2ccc(-c3noc(C(F)(F)F)n3)cc2F)C1 (centres unmarked) [NT3-81] | 137 nM | > 5000 nM | 
O=C(NC1CCN(Cc2ccccc2I)C1)c1ccc(-c2noc(C(F)(F)F)n2)cc1 (centres unmarked) [NT3-127B] | 1000 nM | > 50000 nM | 
